Experimental data from PubChem BioAssay (NCI).
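In this assay, cells in 96-well plates receive the compound at five concentrations for 48 hours. Endpoints are linearly interpolated between the surrounding concentrations. At the GI50, growth is halved. TGI denotes the concentration required for complete inhibition of growth.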

Columns and labels:
Test in all cases: NCI-60 cell line screen, 48 h
DU-145 prostate = test system: DU-145 prostate
SNB-75 CNS = test system: SNB-75 CNS
OVCAR-3 ovarian = test system: OVCAR-3 ovarian
NCI-H460 lung = test system: NCI-H460 lung
MDA-MB-231 breast = test system: MDA-MB-231 breast
MDA-MB-435 = test system: MDA-MB-435
SK-OV-3 ovarian = test system: SK-OV-3 ovarian
SW-620 colon = test system: SW-620 colon
OVCAR-8 ovarian = test system: OVCAR-8 ovarian
SN12C renal = test system: SN12C renal
SK-MEL-2 melanoma = test system: SK-MEL-2 melanoma
PC-3 prostate = test system: PC-3 prostate
HCC-2998 colon = test system: HCC-2998 colon
NCI-H23 lung = test system: NCI-H23 lung
UO-31 renal = test system: UO-31 renal
SF-539 CNS = test system: SF-539 CNS
K-562 leukemia = test system: K-562 leukemia
UACC-257 melanoma = test system: UACC-257 melanoma
NCI-H522 lung = test system: NCI-H522 lung
HCT-15 colon = test system: HCT-15 colon
COLO 205 colon = test system: COLO 205 colon
HL-60(TB) leukemia = test system: HL-60(TB) leukemia
RXF 393 renal = test system: RXF 393 renal
SF-295 CNS = test system: SF-295 CNS
MCF7 breast = test system: MCF7 breast
HT29 colon = test system: HT29 colon
UACC-62 melanoma = test system: UACC-62 melanoma
SK-MEL-28 melanoma = test system: SK-MEL-28 melanoma
HOP-92 NSCLC = test system: HOP-92 NSCLC
OVCAR-5 ovarian = test system: OVCAR-5 ovarian
HCT-116 colon = test system: HCT-116 colon
KM12 colon = test system: KM12 colon
M14 melanoma = test system: M14 melanoma
LOX IMVI melanoma = test system: LOX IMVI melanoma
HOP-62 NSCLC = test system: HOP-62 NSCLC
ACHN renal = test system: ACHN renal
CAKI-1 renal = test system: CAKI-1 renal
MDA-MB-468 breast = test system: MDA-MB-468 breast
NCI/ADR-RES ovarian = test system: NCI/ADR-RES ovarian
SR leukemia = test system: SR leukemia
CCRF-CEM leukemia = test system: CCRF-CEM leukemia
SK-MEL-5 melanoma = test system: SK-MEL-5 melanoma
NCI-H226 lung = test system: NCI-H226 lung
SNB-19 CNS = test system: SNB-19 CNS
U251 CNS = test system: U251 CNS
BT-549 breast = test system: BT-549 breast
786-0 renal = test system: 786-0 renal
RPMI-8226 leukemia = test system: RPMI-8226 leukemia
SF-268 CNS = test system: SF-268 CNS
A498 renal = test system: A498 renal
IGROV1 ovarian = test system: IGROV1 ovarian
EKVX NSCLC = test system: EKVX NSCLC
OVCAR-4 ovarian = test system: OVCAR-4 ovarian
HS 578T breast = test system: HS 578T breast
MOLT-4 leukemia = test system: MOLT-4 leukemia
TK-10 renal = test system: TK-10 renal
A549 NSCLC = test system: A549 NSCLC
T-47D breast = test system: T-47D breast
MALME-3M melanoma = test system: MALME-3M melanoma

N#Cc1c(NC(=O)c2ccc(C(F)(F)F)cc2)sc2c1CCC(=O)C2
GI50 (DU-145 prostate): 3750 nM | TGI (DU-145 prostate): > 100000 nM | GI50 (SNB-75 CNS): 1910 nM | TGI (SNB-75 CNS): 5250 nM | GI50 (OVCAR-3 ovarian): 844 nM | TGI (OVCAR-3 ovarian): 3200 nM | GI50 (NCI-H460 lung): 2860 nM | TGI (NCI-H460 lung): 11800 nM | GI50 (MDA-MB-231 breast): 701 nM | TGI (MDA-MB-231 breast): 1980 nM | GI50 (MDA-MB-435): 1400 nM | TGI (MDA-MB-435): 2970 nM | GI50 (SK-OV-3 ovarian): 2430 nM | TGI (SK-OV-3 ovarian): 6870 nM | GI50 (SW-620 colon): 411 nM | TGI (SW-620 colon): 1820 nM | GI50 (OVCAR-8 ovarian): 1390 nM | TGI (OVCAR-8 ovarian): 5900 nM | GI50 (SN12C renal): 539 nM | TGI (SN12C renal): 3200 nM | GI50 (SK-MEL-2 melanoma): 2070 nM | TGI (SK-MEL-2 melanoma): 4890 nM | GI50 (PC-3 prostate): 410 nM | TGI (PC-3 prostate): 2790 nM | GI50 (HCC-2998 colon): 1430 nM | TGI (HCC-2998 colon): 2930 nM | GI50 (NCI-H23 lung): 402 nM | TGI (NCI-H23 lung): 2090 nM | GI50 (UO-31 renal): 467 nM | TGI (UO-31 renal): 1700 nM | GI50 (SF-539 CNS): 300 nM | TGI (SF-539 CNS): 1060 nM | GI50 (K-562 leukemia): 316 nM | GI50 (UACC-257 melanoma): 2150 nM | TGI (UACC-257 melanoma): > 22800 nM | GI50 (NCI-H522 lung): 273 nM | TGI (NCI-H522 lung): 951 nM | GI50 (HCT-15 colon): 362 nM | TGI (HCT-15 colon): 1450 nM | GI50 (COLO 205 colon): 951 nM | TGI (COLO 205 colon): 2330 nM | GI50 (HL-60(TB) leukemia): 436 nM | TGI (HL-60(TB) leukemia): > 33200 nM | GI50 (RXF 393 renal): 271 nM | TGI (RXF 393 renal): 1230 nM | GI50 (SF-295 CNS): 1290 nM | TGI (SF-295 CNS): 2960 nM | GI50 (MCF7 breast): 553 nM | TGI (MCF7 breast): 10100 nM | GI50 (HT29 colon): 465 nM | TGI (HT29 colon): 2060 nM | GI50 (UACC-62 melanoma): 691 nM | TGI (UACC-62 melanoma): 2000 nM | GI50 (SK-MEL-28 melanoma): 820 nM | TGI (SK-MEL-28 melanoma): 2110 nM | GI50 (HOP-92 NSCLC): 1190 nM | TGI (HOP-92 NSCLC): 3560 nM | GI50 (OVCAR-5 ovarian): 1680 nM | TGI (OVCAR-5 ovarian): 3500 nM | GI50 (HCT-116 colon): 359 nM | TGI (HCT-116 colon): 2090 nM | GI50 (KM12 colon): 1280 nM | TGI (KM12 colon): 4700 nM | GI50 (M14 melanoma): 1010 nM | TGI (M14 melanoma): 2850 nM | GI50 (LOX IMVI melanoma): 350 nM | TGI (LOX IMVI melanoma): 1480 nM | GI50 (HOP-62 NSCLC): 2840 nM | TGI (HOP-62 NSCLC): 11400 nM | GI50 (ACHN renal): 390 nM | TGI (ACHN renal): 1400 nM | GI50 (CAKI-1 renal): 572 nM | TGI (CAKI-1 renal): 2060 nM | GI50 (MDA-MB-468 breast): 557 nM | TGI (MDA-MB-468 breast): 2270 nM | GI50 (NCI/ADR-RES ovarian): 718 nM | TGI (NCI/ADR-RES ovarian): 2930 nM | GI50 (SR leukemia): 522 nM | TGI (SR leukemia): > 100000 nM | GI50 (CCRF-CEM leukemia): 345 nM | TGI (CCRF-CEM leukemia): > 33300 nM | GI50 (SK-MEL-5 melanoma): 1350 nM | TGI (SK-MEL-5 melanoma): 2640 nM | GI50 (NCI-H226 lung): 2180 nM | TGI (NCI-H226 lung): 7910 nM | GI50 (SNB-19 CNS): 2200 nM | TGI (SNB-19 CNS): 13100 nM | GI50 (U251 CNS): 622 nM | TGI (U251 CNS): 2470 nM | GI50 (BT-549 breast): 1070 nM | TGI (BT-549 breast): 2510 nM | GI50 (786-0 renal): 2500 nM | TGI (786-0 renal): > 41200 nM | GI50 (RPMI-8226 leukemia): 273 nM | TGI (RPMI-8226 leukemia): > 100000 nM | GI50 (SF-268 CNS): 2160 nM | TGI (SF-268 CNS): 11500 nM | GI50 (A498 renal): 24600 nM | TGI (A498 renal): 87500 nM | GI50 (IGROV1 ovarian): 1230 nM | TGI (IGROV1 ovarian): 2740 nM | GI50 (EKVX NSCLC): 1320 nM | TGI (EKVX NSCLC): 3660 nM | GI50 (OVCAR-4 ovarian): 1120 nM | TGI (OVCAR-4 ovarian): 2780 nM | GI50 (HS 578T breast): 1170 nM | TGI (HS 578T breast): 5020 nM | GI50 (MOLT-4 leukemia): 419 nM | TGI (MOLT-4 leukemia): > 30100 nM | GI50 (TK-10 renal): 1050 nM | TGI (TK-10 renal): 6850 nM | GI50 (A549 NSCLC): 3520 nM | TGI (A549 NSCLC): 16300 nM | GI50 (T-47D breast): 322 nM | TGI (T-47D breast): 1380 nM | GI50 (MALME-3M melanoma): 1150 nM | TGI (MALME-3M melanoma): 2730 nM
